Laboratory results from ChEMBL document CHEMBL1125482, “Pharmacokinetics of catechol cephalosporins. The effect of incorporating substituents into the catechol moiety on pharmacokinetics in a marmoset model” (J Med Chem, 1992).
≈ marks a conversion by molar mass, not a printed value.

Key:
[1] = physchem
Description: Dissociation constant (pKa)

[2] = species: Canis familiaris; conditions: dog, in vivo, iv
[3] = in vivo; conditions: callithrix, serum, iv
Description: Serum T1/2 in marmosets (IV dose)

[4] = tested on: Pseudomonas aeruginosa; test: microbe, parasite or virus in culture
Description: Compound was tested for antimicrobial activity against Pseudomonas aeruginosa PU21 strain

[5] = tested on: Pseudomonas aeruginosa; test: microbe, parasite or virus in culture; remark: listed apart in the source
Description: Compound was tested for antimicrobial activity against Pseudomonas aeruginosa constitutive derepressed type I beta-lactamase producer (18SH) strain

[6] = Urinary recovery in marmosets (IV dose); type: ADME, organism-based; conditions: callithrix, urine, read-out: Recovery
[7] = species: Homo sapiens; test: Compound was tested for serum protein binding in human blood; type: functional

Compound	pKa [1]	AUC [2] [mg/h/L]	half-life [3] [h]	MIC [4] [µg/mL]	MIC [5] [µg/mL]	dose excreted [6] [%]	Activity [7] [%]
CC(C)(O/N=C(\C(=O)N[C@@H]1C(=O)N2C(C(=O)O)=C(CNC(=O)c3ccc(O)c(O)c3Cl)CS[C@H]12)c1csc(N)n1)C(=O)O	7.65	131	2.9	–	–	–	–
CC(C)(O/N=C(\C(=O)N[C@@H]1C(=O)N2C(C(=O)O)=C(CNCc3cc(O)c(O)c(Br)c3)CS[C@H]12)c1csc(N)n1)C(=O)O	–	4.4	0.7	–	–	–	–
CC(C)(O/N=C(\C(=O)N[C@@H]1C(=O)N2C(C(=O)O)=C(CNC(=O)Nc3cc(O)c(O)c(Br)c3)CS[C@H]12)c1csc(N)n1)C(=O)O	–	122.3	2.8	–	–	–	–
CCn1cc(C(=O)NCC2=C(C(=O)O)N3C(=O)[C@@H](NC(=O)/C(=N\OC(C)(C)C(=O)O)c4csc(N)n4)[C@H]3SC2)c(=O)c2cc(O)c(O)nc21	5.6	137.3	2.8	–	–	–	–
CC(C)(O/N=C(\C(=O)N[C@@H]1C(=O)N2C(C(=O)O)=C(/C=C/c3cc(O)c(O)c(Br)c3)CS[C@H]12)c1csc(N)n1)C(=O)O	7.7	61.6	1.5	–	–	–	–
CO/N=C(\C(=O)N[C@@H]1C(=O)N2C(C(=O)O)=C(COC(C)=O)CS[C@H]12)c1csc(N)n1 [CEFOTAXIME]	–	46.7	0.5	–	–	–	–
CCO/N=C(\C(=O)N[C@@H]1C(=O)N2C(C(=O)O)=C(CNC(=O)c3cc(Cl)c(O)c(O)c3Cl)CS[C@H]12)c1csc(N)n1	6.9	54.5	1.4	–	–	–	–
CCO/N=C(\C(=O)N[C@@H]1C(=O)N2C(C(=O)O)=C(CNC(=O)c3cc(O)c(O)c(Cl)c3)CS[C@H]12)c1csc(N)n1	6.9	57.6	1.3	–	–	–	–
CCOC(=O)c1nc2cc(O)c(O)cc2nc1C(=O)NCC1=C(C(=O)O)N2C(=O)[C@@H](NC(=O)/C(=N\OC(C)(C)C(=O)O)c3csc(N)n3)[C@H]2SC1	6	287	4.6	–	–	–	–
CCn1nc(C(=O)NCC2=C(C(=O)O)N3C(=O)[C@@H](NC(=O)/C(=N\OC(C)(C)C(=O)O)c4csc(N)n4)[C@H]3SC2)c(=O)c2cc(O)c(O)cc21	6.5	129.8	2.2	–	–	26.9	97.8
CCO/N=C(\C(=O)N[C@@H]1C(=O)N2C(C(=O)O)=C(CNC(=O)c3cc(O)c(O)c(F)c3)CS[C@H]12)c1csc(N)n1	7.4	25	0.65	–	–	–	–
CC(C)(O/N=C(\C(=O)N[C@@H]1C(=O)N2C(C(=O)O)=C(CNC(=O)Cc3cc(O)c(O)cc3Br)CS[C@H]12)c1csc(N)n1)C(=O)O	–	1.6	–	–	–	–	–
CC(C)(O/N=C(\C(=O)N[C@@H]1C(=O)N2C(C(=O)O)=C(CNC(=O)/C=C/c3cc(O)c(O)cc3Br)CS[C@H]12)c1csc(N)n1)C(=O)O	–	24.2	1	–	–	–	–
CC(C)(O/N=C(\C(=O)N[C@@H]1C(=O)N2C(C(=O)O)=C(CNC(=O)c3cc4ccc(O)c(O)c4oc3=O)CS[C@H]12)c1csc(N)n1)C(=O)O	–	243.9	3.95	–	–	6.9	99.6
CCO/N=C(\C(=O)N[C@@H]1C(=O)N2C(C(=O)O)=C(CNC(=O)c3cc(O)c(O)c(C#N)c3)CS[C@H]12)c1csc(N)n1	5.5	107	1.2	–	–	–	–
CCO/N=C(\C(=O)N[C@@H]1C(=O)N2C(C(=O)O)=C(CNC(=O)c3cc(O)c(O)cc3Br)CS[C@H]12)c1csc(N)n1	6.9	2	0.35	–	–	–	–
CCn1cc(C(=O)NCC2=C(C(=O)O)N3C(=O)[C@@H](NC(=O)/C(=N\OC(C)(C)C(=O)O)c4csc(N)n4)[C@H]3SC2)c(=O)c2c(Cl)c(O)c(O)cc21	7	645.7	5.7	–	–	–	–

Continued, in another order:

pKa [1]	AUC [2] [mg/h/L]	half-life [3] [h]	MIC [4] [µg/mL]	MIC [5] [µg/mL]	dose excreted [6] [%]	Compound	Activity [7] [%]
7.4	16.4	0.9	–	–	–	CCN(CC1=C(C(=O)O)N2C(=O)[C@@H](NC(=O)/C(=N\OC(C)(C)C(=O)O)c3csc(N)n3)[C@H]2SC1)C(=O)c1cc(O)c(O)c(Cl)c1	–
8.25	7.6	0.6	–	–	–	CCN(CC1=C(C(=O)O)N2C(=O)[C@@H](NC(=O)/C(=N\OC(C)(C)C(=O)O)c3csc(N)n3)[C@H]2SC1)C(=O)c1cc(O)c(O)cc1F	–
5.5	48.9	0.8	–	–	–	CCO/N=C(\C(=O)N[C@@H]1C(=O)N2C(C(=O)O)=C(CNC(=O)c3cc(O)c(O)c([N+](=O)[O-])c3)CS[C@H]12)c1csc(N)n1	–
8.35	51.9	0.9	0.9 (≈ 1.41 µM)	8.1 (≈ 12.7 µM)	–	CC(C)(O/N=C(\C(=O)N[C@@H]1C(=O)N2C(C(=O)O)=C(CNC(=O)c3cc(O)c(O)c(O)c3)CS[C@H]12)c1csc(N)n1)C(=O)O	–
5.5	181.7	2.9	–	–	47.3	CC(C)(O/N=C(\C(=O)N[C@@H]1C(=O)N2C(C(=O)O)=C(CNC(=O)c3cc(O)c(O)c([N+](=O)[O-])c3)CS[C@H]12)c1csc(N)n1)C(=O)O	97.5
7.8	78	1.6	–	–	–	CC(C)(O/N=C(\C(=O)N[C@@H]1C(=O)N2C(C(=O)O)=C(CNC(=O)c3cc(O)c(O)cc3F)CS[C@H]12)c1csc(N)n1)C(=O)O	–
8.1	13.4	0.9	–	–	–	CC(C)(O/N=C(\C(=O)N[C@@H]1C(=O)N2C(C(=O)O)=C(CNC(=O)c3cc(O)c(O)cc3Br)CS[C@H]12)c1csc(N)n1)C(=O)O	–
5.8	41	1	–	–	–	CCN(CC1=C(C(=O)O)N2C(=O)[C@@H](NC(=O)/C(=N\OC(C)(C)C(=O)O)c3csc(N)n3)[C@H]2SC1)C(=O)c1cc(O)c(O)c(C#N)c1	–
7.85	10.9	0.5	–	–	–	CCN(CC1=C(C(=O)O)N2C(=O)[C@@H](NC(=O)/C(=N\OC(C)(C)C(=O)O)c3csc(N)n3)[C@H]2SC1)C(=O)c1cc(O)c(O)c(F)c1	–
7.45	116.8	3.5	–	–	–	CC(C)(O/N=C(\C(=O)N[C@@H]1C(=O)N2C(C(=O)O)=C(CNC(=O)c3cc(O)c(O)c(F)c3)CS[C@H]12)c1csc(N)n1)C(=O)O	–
5.8	49.2	1.6	–	–	–	CCN(CC1=C(C(=O)O)N2C(=O)[C@@H](NC(=O)/C(=N\OC(C)(C)C(=O)O)c3csc(N)n3)[C@H]2SC1)C(=O)c1cc(O)c(O)c([N+](=O)[O-])c1	–
6.5	67.7	1.7	–	–	–	CC(C)(O/N=C(\C(=O)N[C@@H]1C(=O)N2C(C(=O)O)=C(COC(=O)c3cc(O)c(O)c(Br)c3)CS[C@H]12)c1csc(N)n1)C(=O)O	–
